Numbers after ± are expanded uncertainties.
Settings: 101.33 kPa, Liquid; for viscosity: Falling or rolling sphere viscometry; for mass density: Vibrating tube method

Row | viscosity (293.15 K) [mPa·s] | mass density (293.15 K) [kg/m3] | viscosity (303.15 K) [mPa·s] | mass density (303.15 K) [kg/m3] | viscosity (313.15 K) [mPa·s] | mass density (313.15 K) [kg/m3] | viscosity (323.15 K) [mPa·s] | mass density (323.15 K) [kg/m3] | viscosity (333.15 K) [mPa·s] | mass density (333.15 K) [kg/m3] | SMILES
1 | 23.76 ± 0.98 | 1015.96 ± 0.3 | 14.85 ± 0.61 | 1008.05 ± 0.29 | 9.943 ± 0.41 | 1000.09 ± 0.29 | 6.984 ± 0.29 | 992.07 ± 0.29 | 5.108 ± 0.21 | 983.98 ± 0.29 | NCCO [2-aminoethan-1-ol]
2 | 48.53 ± 2.1 | 1065.4 ± 2.2 | 31.73 ± 1.4 | 1059.09 ± 2.1 | 22.09 ± 0.96 | 1052.83 ± 2.1 | 16.17 ± 0.7 | 1046.62 ± 2.1 | 12.35 ± 0.54 | 1040.48 ± 2 | CCCCn1cc[n+](C)c1.N#CN=C=[N-] [1-butyl-3-methylimidazolium dicyanamide]

Row | SMILES | viscosity (293.15 K) [mPa·s] | mass density (293.15 K) [kg/m3] | viscosity (303.15 K) [mPa·s] | mass density (303.15 K) [kg/m3] | viscosity (313.15 K) [mPa·s] | mass density (313.15 K) [kg/m3] | viscosity (323.15 K) [mPa·s] | mass density (323.15 K) [kg/m3] | viscosity (333.15 K) [mPa·s] | mass density (333.15 K) [kg/m3]
3 | Cn1cc[n+](CCO)c1.N#C[N-]C#N [3-(2-hydroxyethyl)-1-methyl-1H-imidazol-3-ium dicyanoazanide] | 121.5 ± 6.2 | 1192.85 ± 2.7 | 68.67 ± 3 | 1186.37 ± 2.7 | 42.93 ± 1.9 | 1179.92 ± 2.7 | 28.96 ± 1.3 | 1173.52 ± 2.6 | 20.67 ± 0.9 | 1167.18 ± 2.6

— the NIST ThermoML archive (doi:10.1016/j.fluid.2013.12.020)
